Laboratory results as given in US20220324868A1, “Pyrazolone-Fused Pyrimidine Compound, and Preparation Method and Use Therefor” (SHANGHAI PHARMACEUTICALS HOLDING CO., LTD., priority 2019, published 2022).
Structures can show the parent of a compound that is named as a salt. Where two headings read alike, the source gives them in different places.

How the values were obtained:
WEE1 kinase = target: T1, WEE1 kinase (Homo sapiens, UniProt P30291); assay: Inhibitory effect on WEE1 kinase in vitro (ELISA); format: biochemical; details: ATP concentration of Km (12 μM), WEE1 0.15 ng/μL, 60 min
T1 construct: purchased CarnaBiosciences, Inc. 05-177
Procedure: I. Inhibitory Effect of Compound on WEE1 Kinase In Vitro
The tested compounds were screened on WEE1 kinase with ATP concentration of Km by ELISA. Three compounds were screened on WEE1 kinase to evaluate the kinase inhibitory activity of the tested compounds. In the detection process, the initial concentration of the tested compounds was all selected as 100 nM, and each compound was selected with 6 gradient dilution concentrations, the gradient dilution ratio was 4-fold, and two replicate wells were detected for each concentration, MK1775 was used as the standard control.
1. Coating substrate: 1) An appropriate volume of substrate storage solution protein tyrosinase (PTK) substrate (poly-Glu-Tyr) was taken, diluted 10 times with PBS, and the concentration was diluted from […]. The mixture was added to a high adsorption 96-well plate at 125 μL per well. The plate was placed in an incubator at 37° C. for overnight coating. 2) After 24 hours, the 96-well plate was taken out, the liquid in the 96-well plate was poured out, cleaned with washing buffer for 3 times, and the incubator at 37 was inverted and dried for 2 hours.
3. Enzyme reaction stage: 1) WEE1 kinase and ATP were prepared into 2× enzyme solution and 4× ATP solution respectively with 1× reaction buffer.
4. Reaction termination stage: 1) the reaction mixture in the plate was poured out, 200 μL of washing buffer was added to each well, and washed for 5 times; the primary antibody P-Tyr (PY99) (dilution ratio 1:2000) was added, 100 μL per well, at room temperature for 30 min. 2) The primary antibody in the plate was poured out, 200 μL of washing buffer was added to each well, and washed for 5 times; the second antibody Anti-mouse IgG HRP-linked Antibody (dilution ratio 1:2000) was added, 100 μL per well, at room temperature for 30 min. 3) The secondary antibody in the plate was poured out, washed 5 times with washing buffer, and TMB was added, 100 μL per well, and colored for 10-30 min, depending on the color depth. The reaction was terminated with 1N sulfuric acid before reading.
5. […] 2) Graphpad Prism 5.0 was used to fit Log(inhibitor) vs. response-Variable slope (four parameters) curves to the data, and the corresponding IC50 (half maximal inhibitory concentration) was calculated.

COLO 205 cells = assay: Proliferation inhibition of COLO 205 cells (Luminescence ATP Detection, ATPlite); format: cell-based; details: Homo sapiens; p53-deficient cell line COLO 205, 72 hours
Procedure: (§1) I. Proliferation Inhibitory of the Compound on COLO 205 Cells and Hela Cells.
(§2) COLO205 cells, purchased from SIBS, generation P11; Hela purchased from ATCC, generation P13.
(§3) Drug treatment of cells: on the third day of the experiment, microplates were removed from the incubator, 9× compound were added to each well in the microplate, and 5 μL was added to each well, wherein there were 2 replicate wells for each drug concentration and 10 drug concentrations for each compound. According to different cell lines, the initial concentration of each compound was different, after the completion, the microplate was cultured at 37° C. and 5% CO2 for 72 hours.
(§4) Data collection: The microplates were removed from the incubator and equilibrated at room temperature for 30 minutes. 100 μL of ATPlite reaction mixture after room temperature equilibrium was added to each well, the solution was shaken at room temperature of 1300 rpm for 2 minutes, and then the microplate was placed in a HERAEUS Multifuge X1R centrifuge at 2000 rpm for 1 minute; after equilibrium at room temperature for 10 minutes, the fluorescence signal value was measured on EnVision™.
(§5) Calculation of cell viability: Cell viability(%)=signal value of administration/signal value of controlx 100%. Graphpad Prism 5.0 was used to fit Log(inhibitor) vs. response-Variable slope (four parameters) curves to the fluorescence signal values at each concentration, and the corresponding IC50 (half maximal inhibitory concentration) was calculated.

Hela cells = assay: Proliferation inhibition of Hela cells (Luminescence ATP Detection, ATPlite); format: cell-based; details: Homo sapiens, 72 hours
Procedure: as §1, §2
Cell culture and inoculation: on the first day of the experiment, cells in normal culture were taken in their exponential growth state, digested and dispersed, the cell density was adjusted to 9×10^3 cells/mL, and 40 μL per well were inoculated into 384-well cell culture plates; after inoculation was completed, the microplates were placed at 37° C. and 5% CO2 for incubation.
as §3, with “second” for “third”
as §4, with “the” for “The”, “40” for “100”
as §5

T1 sequence (P30291 whole entry): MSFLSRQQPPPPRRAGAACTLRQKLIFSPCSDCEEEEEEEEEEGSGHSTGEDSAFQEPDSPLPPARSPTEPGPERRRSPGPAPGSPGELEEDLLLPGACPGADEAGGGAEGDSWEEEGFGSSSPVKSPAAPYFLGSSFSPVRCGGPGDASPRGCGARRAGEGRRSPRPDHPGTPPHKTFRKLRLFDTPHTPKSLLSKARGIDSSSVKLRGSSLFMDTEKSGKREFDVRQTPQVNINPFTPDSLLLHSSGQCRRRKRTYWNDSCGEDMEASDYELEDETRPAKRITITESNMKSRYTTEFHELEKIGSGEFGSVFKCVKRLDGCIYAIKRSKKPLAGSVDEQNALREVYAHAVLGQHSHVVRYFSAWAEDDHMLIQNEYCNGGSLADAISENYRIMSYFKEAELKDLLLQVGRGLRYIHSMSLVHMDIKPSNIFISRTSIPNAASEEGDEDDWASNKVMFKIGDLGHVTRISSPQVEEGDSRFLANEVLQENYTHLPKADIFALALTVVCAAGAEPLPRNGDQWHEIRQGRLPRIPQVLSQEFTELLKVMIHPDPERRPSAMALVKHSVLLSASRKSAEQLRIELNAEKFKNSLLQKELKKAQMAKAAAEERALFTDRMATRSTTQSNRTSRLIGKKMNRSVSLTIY

Which IC50 (WEE1 kinase; read-out: WEE1 IC50) does the source give for `C=CCn1c(=O)c2cnc(Nc3ccc([C@H]4CC[C@@H](N(C)C)CC4)cc3)nc2n1-c1ccc2c(n1)C(O)CC2` (single isomer, unassigned) [Compound I-30-1] here?
Its IC50 is 5.86 nM.

For `C=CCn1c(=O)c2cnc(Nc3ccc([C@H]4CC[C@@H](N(C)C)CC4)cc3)nc2n1-c1ccc2c(n1)C(O)CC2` (single isomer, unassigned) [Compound I-30-2], which IC50 (WEE1 kinase; read-out: WEE1 IC50) is on record?
Its IC50 is 6.6 nM.

For `C=CCn1c(=O)c2cnc(Nc3ccc([C@H]4CC[C@@H](N(C)C)CC4)cc3)nc2n1-c1ccc2c(n1)C(C)(O)CCC2` (single isomer, unassigned) [Compound I-36-1], which IC50 (WEE1 kinase; read-out: WEE1 IC50) is on record?
The IC50 was 4.75 nM.

With `C=CCn1c(=O)c2cnc(Nc3ccc([C@H]4CC[C@@H](N(C)C)CC4)cc3)nc2n1-c1ccc2c(n1)C(C)(O)CCC2` (single isomer, unassigned) [Compound I-36-2] as the compound, how does the IC50 (WEE1 kinase; read-out: WEE1 IC50) read?
Its IC50 is 2.65 nM.

With `C=CCn1c(=O)c2cnc(Nc3ccc(N4CCN(C)CC4)cc3)nc2n1-c1ccc2c(n1)C(O)CC2` (stereo not drawn) [Compound I-1, 2-allyl-1-(7-hydroxy-6,7-dihydro-5H-cyclopenta[b]pyridin-2-yl)-6-((4-(4-methylpiperazin-1-yl)phenyl)amino)-1,2-dihydro-3H-pyrazolo[3,4-d]pyrimidin-3-one] as the compound, how does the IC50 (WEE1 kinase; WEE1 IC50, nM) read?
Its IC50 is 2.85 nM.

What about the IC50 (COLO 205 cells) of the same compound?
Its IC50 is 1880 nM.

And the IC50 (Hela cells)?
Its IC50 is 495 nM.

Which results are given for `C=CCn1c(=O)c2cnc(Nc3ccc(N4CCN(CC)CC4)cc3)nc2n1-c1ccc2c(n1)C(O)CC2` (stereo not drawn) [Compound I-2]?
IC50 (WEE1 kinase; read-out: WEE1 IC50): 2.55 nM; IC50 (COLO 205 cells): 1740 nM; IC50 (Hela cells): 345 nM

`C=CCn1c(=O)c2cnc(Nc3ccc(C4CCN(C)CC4)cc3)nc2n1-c1ccc2c(n1)C(O)CC2` (stereo not drawn) [Compound I-3] was tested. Which IC50 (WEE1 kinase; read-out: WEE1 IC50) did it give?
The IC50 was 2.68 nM.

And the IC50 (COLO 205 cells)?
The IC50 was 5150 nM.

And the IC50 (Hela cells)?
Its IC50 is 434 nM.

With `C=CCn1c(=O)c2cnc(Nc3ccc(N4CCN(CC5CC5)CC4)cc3)nc2n1-c1ccc2c(n1)C(O)CC2` (stereo not drawn) [Compound I-4] as the compound, how does the IC50 (WEE1 kinase; read-out: WEE1 IC50) read?
Its IC50 is 4.43 nM.

What about the IC50 (COLO 205 cells) of the same compound?
Its IC50 is 1970 nM.

And the IC50 (Hela cells)?
Its IC50 is 395 nM.

Which IC50 (WEE1 kinase; read-out: WEE1 IC50) does the source give for `C=CCn1c(=O)c2cnc(Nc3ccc(N4CCC(CN(C)C)CC4)cc3)nc2n1-c1ccc2c(n1)C(O)CC2` (stereo not drawn) [Compound I-5, 2-allyl-6-((4-(4-((dimethylamino)methyl)piperidin-1-yl)phenyl)amino)-1-(7-hydroxy-6,7-dihydro-5H-cyclopenta[b]pyridin-2-yl)-1,2-dihydro-3H-pyrazolo[3,4-d]pyrimidin-3-one] here?
The IC50 was 3.62 nM.

What about the IC50 (COLO 205 cells) of the same compound?
Its IC50 is 2550 nM.

And the IC50 (Hela cells)?
The IC50 was 392 nM.

With `C=CCn1c(=O)c2cnc(Nc3ccc(CN4CCN(C)CC4)cc3)nc2n1-c1ccc2c(n1)C(O)CC2` (stereo not drawn) [Compound I-7] as the compound, how does the IC50 (WEE1 kinase; read-out: WEE1 IC50) read?
Its IC50 is 9.69 nM.

What about the IC50 (Hela cells) of the same compound?
Its IC50 is 2900 nM.

How did the IC50 (WEE1 kinase; read-out: WEE1 IC50) turn out when `C=CCn1c(=O)c2cnc(Nc3ccc(N4CCC5(CC4)CN(C)C5)cc3)nc2n1-c1ccc2c(n1)C(O)CC2` (stereo not drawn) [Compound I-8] was run?
Its IC50 is 11.3 nM.

How did the IC50 (WEE1 kinase; read-out: WEE1 IC50) turn out when `C=CCn1c(=O)c2cnc(Nc3ccc(N4CCC5(CCN(C)CC5)CC4)cc3)nc2n1-c1ccc2c(n1)C(O)CC2` (stereo not drawn) [Compound I-9, 2-allyl-1-(7-hydroxy-6,7-dihydro-5H-cyclopenta[b]pyridin-2-yl)-6-((4-(9-methyl-3,9-diazaspiro[5.5]undecan-3-yl)phenyl)amino)-1,2-dihydro-3H-pyrazolo[3,4-d]pyrimidin-3-one] was run?
Its IC50 is 2.87 nM.

And the IC50 (COLO 205 cells)?
The IC50 was 614 nM.

And the IC50 (Hela cells)?
Its IC50 is 191 nM.

How did the IC50 (WEE1 kinase; read-out: WEE1 IC50) turn out when `C=CCn1c(=O)c2cnc(Nc3ccc(N4CC5CC4CN5)cc3)nc2n1-c1ccc2c(n1)C(C)(O)CC2` (stereo not drawn) [Compound I-12, 6-((4-(2,5-diazabicyclo[2.2.1]heptan-2-yl)phenyl)amino)-2-allyl-1-(7-hydroxy-7-methyl-6,7-dihydro-5H-cyclopenta[b]pyridin-2-yl)-1,2-dihydro-3H-pyrazolo[3,4-d]pyrimidin-3-one] was run?
The IC50 was 3.68 nM.

`C=CCn1c(=O)c2cnc(Nc3ccc(N4CCOCC4)cc3)nc2n1-c1ccc2c(n1)C(C)(O)CC2` (stereo not drawn) [Compound I-15] was tested. Which IC50 (WEE1 kinase; read-out: WEE1 IC50) did it give?
Its IC50 is 3.85 nM.

How did the IC50 (WEE1 kinase; read-out: WEE1 IC50) turn out when `C=CCn1c(=O)c2cnc(Nc3ccc(CCC(=O)N4CCCC4)cc3)nc2n1-c1ccc2c(n1)C(C)(O)CCC2` (stereo not drawn) [Compound I-17, 2-allyl-1-(8-hydroxy-8-methyl-5,6,7,8-tetrahydroquinolin-2-yl)-6-((4-(3-oxo-3-(pyrrolidin-1-yl)propyl)phenyl)amino)-1,2-dihydro-3H-pyrazolo[3,4-d]pyrimidin-3-one] was run?
The IC50 was 12.8 nM.

For `C=CCn1c(=O)c2cnc(Nc3ccc(N4CCNCC4)cc3)nc2n1-c1ccc2c(n1)C(C)(O)CCC2` (stereo not drawn) [Compound I-18, 2-allyl-1-(8-hydroxy-8-methyl-5,6,7,8-tetrahydroquinolin-2-yl)-6-((4-(piperazin-1-yl)phenyl)amino)-1,2-dihydro-3H-pyrazolo[3,4-d]pyrimidin-3-one], which IC50 (WEE1 kinase; read-out: WEE1 IC50) is on record?
Its IC50 is 2.03 nM.

Which IC50 (WEE1 kinase; read-out: WEE1 IC50) does the source give for `C=CCn1c(=O)c2cnc(Nc3ccc(N4CCC5(CC4)CN(C)C5)cc3)nc2n1-c1ccc2c(n1)C(O)CCC2` (stereo not drawn) [Compound I-20, 2-allyl-1-(8-hydroxy-5,6,7,8-tetrahydroquinolin-2-yl)-6-((4-(2-methyl-2,7-diazaspiro[3.5]nonan-7-yl)phenyl)amino)-1,2-dihydro-3H-pyrazolo[3,4-d]pyrimidin-3-one] here?
Its IC50 is 4.41 nM.

`C=CCn1c(=O)c2cnc(Nc3ccc(N4CCC5(CC4)CNC5)cc3)nc2n1-c1ccc2c(n1)C(O)CCC2` (stereo not drawn) [Compound I-21, 6-((4-(2,7-diazaspiro[3.5]nonan-7-yl)phenyl)amino)-2-allyl-1-(8-hydroxy-5,6,7,8-tetrahydroquinolin-2-yl)-1,2-dihydro-3H-pyrazolo[3,4-d]pyrimidin-3-one] was tested. Which IC50 (WEE1 kinase; read-out: WEE1 IC50) did it give?
The IC50 was 5.75 nM.

Which IC50 (WEE1 kinase; read-out: WEE1 IC50) does the source give for `C=CCn1c(=O)c2cnc(Nc3ccc(N4CCC5(CCNC5)CC4)cc3)nc2n1-c1ccc2c(n1)C(O)CCC2` (stereo not drawn) [Compound I-22] here?
The IC50 was 3.55 nM.

Which IC50 (WEE1 kinase; read-out: WEE1 IC50) does the source give for `C=CCn1c(=O)c2cnc(Nc3ccc(N4CCNCC4)cc3)nc2n1-c1ccc2c(n1)C(O)CCC2` (stereo not drawn) [Compound I-24] here?
Its IC50 is 3.81 nM.

`C=CCn1c(=O)c2cnc(Nc3ccc(N4CC5CC4CN5)cc3)nc2n1-c1ccc2c(n1)C(O)CCC2` (stereo not drawn) [Compound I-25] was tested. Which IC50 (WEE1 kinase; read-out: WEE1 IC50) did it give?
Its IC50 is 4.05 nM.

Which IC50 (WEE1 kinase; read-out: WEE1 IC50) does the source give for `C=CCn1c(=O)c2cnc(Nc3ccc(N4CCC(N(C)C)CC4)cc3)nc2n1-c1ccc2c(n1)C(O)CCC2` (stereo not drawn) [Compound I-28, 2-allyl-6-((4-(4-(dimethylamino)piperidin-1-yl)phenyl)amino)-1-(8-hydroxy-5,6,7,8-tetrahydroquinolin-2-yl)-1,2-dihydro-3H-pyrazolo[3,4-d]pyrimidin-3-one formate] here?
The IC50 was 3.58 nM.

`C=CCn1c(=O)c2cnc(Nc3ccc(N4C[C@H]5CN(C)C[C@H]5C4)cc3)nc2n1-c1ccc2c(n1)C(O)CC2` (stereo partly drawn) [Compound I-31] was tested. Which IC50 (WEE1 kinase; read-out: WEE1 IC50) did it give?
The IC50 was 3.12 nM.

For `C=CCn1c(=O)c2cnc(Nc3ccc(N4C[C@H]5CN(CC)C[C@H]5C4)cc3)nc2n1-c1ccc2c(n1)C(O)CC2` (stereo partly drawn) [Compound I-37], which IC50 (WEE1 kinase; read-out: WEE1 IC50) is on record?
Its IC50 is 11.8 nM.

`C=CCn1c(=O)c2cnc(Nc3ccc(N4CC5(CC(N(C)C)C5)C4)cc3)nc2n1-c1ccc2c(n1)C(O)CC2` (stereo not drawn) [Compound I-42] was tested. Which IC50 (Hela cells) did it give?
The IC50 was 322 nM.

With `C=CCn1c(=O)c2cnc(Nc3ccc(CCCN(C)C)cc3)nc2n1-c1ccc2c(n1)C(O)CC2` (stereo not drawn) [Compound I-43] as the compound, how does the IC50 (WEE1 kinase; read-out: WEE1 IC50) read?
The IC50 was 4.91 nM.
